How the values were obtained:
[1] = test system: systolic arterial pressure; experiment: Blood pressure in Sprague-Dowley rats; format: in vivo; conditions: for systolic arterial pressure after acute treatment, in words: Sprague-Dowley rats, FIG. 10
Method: These reductions were of an acute form (at 2 hours of treatment, 19±6 mmHg, P<0.01, n=6) and of a chronic form (1 week, 26±7 mmHg, P<0.001, n=6).
Lower doses of this molecule (1-10 mg/kg) produced similar effects, but less marked. *P<0.01.

[2] = test system: human lung cancer cells A549; experiment: Proliferation (cell density) of A549 tumor cells in culture; format: cell-based; conditions: FIG. 4A
Text: (§1) The presence of 2-hydroxyoleic acid and/or its analogs in the cells induces activation of the signal pathway associated with p53, which induces the start of apoptosis or stopping of the cell cycle in various types of tumor cells. With the aim of carrying out the first objective of the present invention, in vitro and in vivo models were used.

[3] = Temperature of transition from lamellar to hexagonal structure (HII) of DEPE membranes, X-ray diffraction/scattering; conditions: for TH, lamellar-hexagonal transition of DEPE: phospholipid:analog 20:1 mol:mol, Table 2, control 61
Method: The control value (in the absence of 2-hydroxyoleic) is 63° C. […] This important modification of the cell membrane has important consequences for molecular and cellular function. All the analogs of 2-hydroxyoleic tested that have therapeutic activity also induce effects on the membrane structure (Table 2).
Using this technique, we established that the structure of the membrane is altered by 2-hydroxyoleic acid and its analogs. The lowering of the temperature of transition from lamellar to hexagonal structure indicates an important effect on rearrangement of the lipid molecules in the membrane. This regulation of rearrangement forms the basis of the effect exerted by 2-hydroxyoleic acid and its analogs.

[4] = test system: Jurkat cells of human leukemia; experiment: Proliferation (cell density) of Jurkat tumor cells in culture; format: cell-based; conditions: FIG. 4B
Text: as §1

[5] = test system: cerebral tumor metastases, formed from a lung adenocarcinoma; experiment: Brain metastases of lung adenocarcinoma in a patient; format: in vivo, human; conditions: previous chemotherapy and radiotherapy without effect
Text: The antitumor efficacy of 2-hydroxyoleic acid and its […] is shown in FIG. 8, in which we can see the disappearance of some cerebral tumor metastases, formed from a lung adenocarcinoma, after treatment with 2-hydroxyoleic acid.
Regulation of the Activity of G-Proteins Controls Blood Pressure.
The image on the left (8a) corresponds to the tumors before treatment and those on the right (8b, 8c and 8d) correspond to the tumors after treatment with 2-hydroxyoleic on various dates.

[6] = test system: G-proteins; experiment: Binding of [35S]GTPγS to membranes of NIH 3T3 cells transfected with the rat adrenoceptor α2A/D (activity of G-proteins); format: biochemical
Text: Hydroxyoleic acid and related compounds are capable of modulating the activity of G-proteins, measured by the binding of [^35S] GTPγS (FIG. 5).
The analogs of 2-hydroxyoleic produce an effect similar to that of 2-hydroxyoleic acid.

[7] = test system: purified G-proteins; experiment: Activity of purified G-proteins in the absence of membrane; format: biochemical
Text: (§2) This is because these molecules have an influence on the interaction of G-proteins with membranes and therefore on their cellular localization, as is shown in the photographs from confocal microscopy (FIG. 2). The effect of hydroxyoleic acid and its analogs on the localization and activity of G-proteins is not due to a direct interaction on them.
FIG. 6: Hydroxyoleic acid and its analogs had no effect on pure G-proteins (in the absence of membrane).

[8] = test system: human leukemia cells (Jurkat); experiment: Degradation of poly-ADP ribose polymerase (PARP) in Jurkat cells; format: cell-based; conditions: Jurkat cells, 10, 100 and 1000 μM, FIG. 3C
Text: (§3) Similar effects were produced by all the analogs tested that comply with the general structural formula given earlier. […] This antiproliferative effect was also observed using other techniques and other cell types: in rat primary astrocytes, these fatty acids have an antiproliferative effect, which I studied by incorporating tritiated thymidine. Moreover, hydroxyoleic acid and its analogs are able to induce apoptosis or programmed cell death in human cancer cells. […] Using flow cytometry experiments, it was established that in the presence of 2-hydroxyoleic acid the number of live human leukemia cells (Jurkat) was only 10% of those that remained alive with Etoposide, a known antitumor agent.
Protein p21 inhibits the cell cycle, so it is an antiproliferative protein. […] The decrease in levels of this enzyme, or evidence of its degradation, indicate the start of apoptosis or programmed cell death. In these experiments Etoposide was used as the positive control, as this molecule is known to be an inducer of apoptosis and an antitumor agent.

[9] = Body weight of rats in chronic treatment; format: in vivo; conditions: seventh day, Sprague-Dowley rat aged 2-3 months
Text: Rats treated with these molecules lost body weight during chronic treatments (from 5 to 17 days). In these experiments, rats treated with 2-hydroxyoleic acid or its analogs, in particular aminoleic acid, had free access to food and water, in the same way as the control group of treated rats (FIG. 11). In these conditions there was a progressive decrease in the rats' body weight starting from the first day of treatment, up to 17 grams on the seventh day of treatment (5% of the normal body weight of a Sprague-Dowley rat aged 2-3 months). […] Similar experiments carried out on adult mice, for periods of up to 28 days with 2-hydroxyoleic acid, show reductions in body weight from 15% to 25%, relative to control mice (treated with vehicle).
The animals (Sprague-Dowley rats) had free access to food and water at any time.

[10] = test system: human lung cancer cells A549; experiment: Cell cycle proteins (cdk2, cyclin B, cyclin D3, p21) in A549 cells; format: cell-based
Text: (§4) In this way, inhibition of cell proliferation is achieved, as was confirmed by the appreciable and significant increases in the levels of the protein p21 and the decreases in the cell cycle proteins cdk2 and cyclins B and D3 (FIGS. 3A and B). Moreover, it has been observed that in cells in culture, 2-hydroxyoleic acid and its analogs induce significant increases in protein kinase C (increase of between 40% and 120%).
as §3
Protein p21 inhibits the cell cycle, so it is an antiproliferative protein. […] The decrease in levels of this enzyme, or evidence of its degradation, indicate the start of apoptosis or programmed cell death. […]

[11] = test system: heart rate; experiment: Heart rate during hypotensive treatment; format: in vivo; conditions: FIGS. 9a, 9b and 10
Method: The hypotensive effect produced by 2-hydroxyoleic acid and its analogs is that it induces a reduction in blood pressure of an acute form (which is evident from 2 hours of treatment) and chronic (which is maintained for days and weeks while the treatment is maintained). Aminoleic acid, for example, reduces blood pressure by 15 mmHg in chronic treatments lasting a week. These fatty acids regulate communication between receptor, G-protein and effector. The result is a modulation of the signals of cyclic AMP, phospholipase C and nitric oxide, which gives rise to a reduction in blood pressure. This effect is also connected with regulation of the membrane structure. […] An additional advantage of these compounds is that they control other cardiovascular risk factors: the serum lipid/lipoprotein profile and body weight (see below).

[12] = test system: human leukemia cells (Jurkat); experiment: Flow cytometry, number of live Jurkat cells; format: cell-based
Text: as §3

[13] = test system: Gαi2 protein; experiment: Cellular localization of fluorescein-labeled Gαi2 protein, confocal microscopy; format: cell-based; conditions: primary astrocytes of rat brain, FIG. 2
Text: as §2, §4
In control cells, the labeling indicates the presence of this protein throughout the cell, especially in the nucleus (arrow).

[14] = test system: systolic arterial pressure; experiment: Blood pressure in humans; format: in vivo; conditions: 30 mg/kg, FIG. 9b
Text: The days prior to treatment are shown with negative values. *P<0.05, **P<0.01.

CCCCCCCC/C=C\CCCCCCCC(=O)O [Oleic acid, oleic (cis-9-octadecenoic)acid]
systolic arterial pressure after acute treatment, in words [1]: significant decreases
effect on proliferation of A549 cells [2]: induce stoppage of division and the death of tumor cells
TH, lamellar-hexagonal transition of DEPE [3]: 45 °C
effect on proliferation of Jurkat cells [4]: induce stoppage of division and the death of tumor cells
effect on brain tumors (metastases) in a patient ([5]; FIG. 8): complete disappearance of the cancer

CCCCCCCC/C=C\CCCCCCC(C)C(=O)O (stereo not drawn) [Methyloleic acid, 2-methyl-oleic (2-methyl-cis-9-octadecenoic)acid]
systolic arterial pressure after acute treatment, in words [1]: significant decreases
effect on proliferation of A549 cells [2]: induce stoppage of division and the death of tumor cells
TH, lamellar-hexagonal transition of DEPE [3]: 50 °C
effect on proliferation of Jurkat cells [4]: induce stoppage of division and the death of tumor cells

CCCCCC/C=C\CCCCCCCC(=O)O [palmitoleic acid, palmitoleic (cis-9-hexadecenoic)acid]
systolic arterial pressure after acute treatment, in words [1]: significant decreases
effect on proliferation of A549 cells [2]: induce stoppage of division and the death of tumor cells
effect on proliferation of Jurkat cells [4]: induce stoppage of division and the death of tumor cells

CCCCCCCC/C=C\CCCCCCCCCCCCCC(=O)O [Nervonic acid, nervonic (cis-15-tetracosenoic)acid]
systolic arterial pressure after acute treatment, in words [1]: significant decreases
effect on proliferation of A549 cells [2]: induce stoppage of division and the death of tumor cells
TH, lamellar-hexagonal transition of DEPE [3]: 55 °C
effect on proliferation of Jurkat cells [4]: induce stoppage of division and the death of tumor cells

COc1cccc2c1C(=O)c1c(O)c3c(c(O)c1C2=O)C[C@@](O)(C(C)=O)C[C@@H]3O[C@H]1C[C@H](N)[C@H](O)[C@H](C)O1 [daunomycin, reference compound]
inhibition in the activity of G-proteins ([6]; 200 μM, membranes of NIH 3T3 cells): 46%
influence on the activity of purified G-proteins ([7]; FIG. 6): did not have an influence
influence on the activity of purified G-proteins ([7]; FIG. 6, listed as Daunomycin): behavior similar to the control

CCCCCCCC/C=C\CCCCCCC(O)C(=O)O (stereo not drawn) [2-hydroxyoleic acid, cis-2-hydroxy-9-octadecenoic acid]
poly-ADP ribose polymerase (PARP) levels [8]: degradation
decrease in body weight as share of normal body weight [9]: 5%
function of the G-proteins ([35S]GTPγS binding), in words ([6]; FIG. 5): decrease in function of the G-proteins even greater than the anthracycline daunomycin
cell cycle proteins cdk2, cyclin B and cyclin D3 ([10]; FIG. 3A): decrease
p21 protein ([10]; incubation for 24 and 48 hours, FIG. 3B): large increases
effect on heart rate [11]: without altering the heart rate
systolic arterial pressure after acute treatment, in words [1]: significant decreases
blood pressure at lower doses, in words ([1]; acute and chronic treatments from 1 mg/kg to 10 mg/kg): significant reductions
reduction of blood pressure, chronic ([1]; rats, 1 week, 3 daily injections of 30 mg/kg): 26±7 mmHg
reduction of blood pressure, acute ([1]; rats, at 2 hours of treatment, 30 mg/kg): 19±6 mmHg
effect on proliferation of A549 cells [2]: induce stoppage of division and the death of tumor cells
TH, temperature of transition from lamellar to hexagonal structure ([3]; DEPE:2OHOA 10:1 mol:mol): 41 °C
TH, temperature of transition from lamellar to hexagonal structure ([3]; DEPE:2OHOA 20:1 mol:mol): 48 °C
TH, temperature of transition from lamellar to hexagonal structure ([3]; DEPE:2OHOA 40:1 mol:mol): 54 °C
number of live Jurkat cells relative to those that remained alive with Etoposide [12]: 10%
effect on proliferation of Jurkat cells [4]: induce stoppage of division and the death of tumor cells
effect on brain tumors (metastases) in a patient ([5]; FIG. 8): complete disappearance of the cancer
effect on brain tumors (metastases) in a patient ([5]; FIG. 8, listed as 2-hydroxyoleic): one of the tumors disappeared more quickly and the other one more slowly
cellular localization of Gαi2 protein [13]: in membrane and cytosol, but not in the nucleus
blood pressure in humans, in words [14]: significant, large decreases
influence on the activity of purified G-proteins ([7]; FIG. 6, listed as Hydroxyoleic acid): no effect
influence on the activity of purified G-proteins ([7]; FIG. 6, listed as hydroxyoleic): did not have an influence

CCCCCCCC/C=C\CCCCCCC(N)C(=O)O (stereo not drawn) [Aminoleic acid, 2-amino-oleic (2-amino-cis-9-octadecenoic)acid]
decrease in body weight as share of normal body weight [9]: 5%
reduction of blood pressure, chronic treatments lasting a week ([1]; species not printed at the place): 15 mmHg
effect on proliferation of A549 cells [2]: induce stoppage of division and the death of tumor cells
TH, lamellar-hexagonal transition of DEPE [3]: 49 °C
effect on proliferation of Jurkat cells [4]: induce stoppage of division and the death of tumor cells

CCCCCC/C=C\CCCCCCCCCC(=O)O [cis-Vaccenic acid, cis-vaccenic (cis-11-octadecenoic)acid]
systolic arterial pressure after acute treatment, in words [1]: significant decreases
TH, lamellar-hexagonal transition of DEPE [3]: 53 °C

Source: patent US8778995B2, “Use of hydroxyoleic acid and related compounds in the manufacture of drugs” (Universitat de les Illies Balears, priority 2001, dated 2014)
